Experimental data from patent publication US20250041284A1, “TREATMENT OF NEUROLOGICAL DISORDERS” (Praxis Precision Medicines, Inc., priority 2022, published 2025).
“Also recorded” adds a separate entry of the source.

Experiments:
human NaV1.6 = molecular target: T1, human NaV1.6 (Homo sapiens, UniProt Q9UQD0); test: Persistent (late) INa inhibition, ATX-II activated, automated patch clamp in HEK cells; format: cell-based
T1 construct: HEK-293 cell lines stably expressing human NaV1.6 (NP_055006) were used; expressed in transfected cells
T1 sequence (Q9UQD0 whole entry): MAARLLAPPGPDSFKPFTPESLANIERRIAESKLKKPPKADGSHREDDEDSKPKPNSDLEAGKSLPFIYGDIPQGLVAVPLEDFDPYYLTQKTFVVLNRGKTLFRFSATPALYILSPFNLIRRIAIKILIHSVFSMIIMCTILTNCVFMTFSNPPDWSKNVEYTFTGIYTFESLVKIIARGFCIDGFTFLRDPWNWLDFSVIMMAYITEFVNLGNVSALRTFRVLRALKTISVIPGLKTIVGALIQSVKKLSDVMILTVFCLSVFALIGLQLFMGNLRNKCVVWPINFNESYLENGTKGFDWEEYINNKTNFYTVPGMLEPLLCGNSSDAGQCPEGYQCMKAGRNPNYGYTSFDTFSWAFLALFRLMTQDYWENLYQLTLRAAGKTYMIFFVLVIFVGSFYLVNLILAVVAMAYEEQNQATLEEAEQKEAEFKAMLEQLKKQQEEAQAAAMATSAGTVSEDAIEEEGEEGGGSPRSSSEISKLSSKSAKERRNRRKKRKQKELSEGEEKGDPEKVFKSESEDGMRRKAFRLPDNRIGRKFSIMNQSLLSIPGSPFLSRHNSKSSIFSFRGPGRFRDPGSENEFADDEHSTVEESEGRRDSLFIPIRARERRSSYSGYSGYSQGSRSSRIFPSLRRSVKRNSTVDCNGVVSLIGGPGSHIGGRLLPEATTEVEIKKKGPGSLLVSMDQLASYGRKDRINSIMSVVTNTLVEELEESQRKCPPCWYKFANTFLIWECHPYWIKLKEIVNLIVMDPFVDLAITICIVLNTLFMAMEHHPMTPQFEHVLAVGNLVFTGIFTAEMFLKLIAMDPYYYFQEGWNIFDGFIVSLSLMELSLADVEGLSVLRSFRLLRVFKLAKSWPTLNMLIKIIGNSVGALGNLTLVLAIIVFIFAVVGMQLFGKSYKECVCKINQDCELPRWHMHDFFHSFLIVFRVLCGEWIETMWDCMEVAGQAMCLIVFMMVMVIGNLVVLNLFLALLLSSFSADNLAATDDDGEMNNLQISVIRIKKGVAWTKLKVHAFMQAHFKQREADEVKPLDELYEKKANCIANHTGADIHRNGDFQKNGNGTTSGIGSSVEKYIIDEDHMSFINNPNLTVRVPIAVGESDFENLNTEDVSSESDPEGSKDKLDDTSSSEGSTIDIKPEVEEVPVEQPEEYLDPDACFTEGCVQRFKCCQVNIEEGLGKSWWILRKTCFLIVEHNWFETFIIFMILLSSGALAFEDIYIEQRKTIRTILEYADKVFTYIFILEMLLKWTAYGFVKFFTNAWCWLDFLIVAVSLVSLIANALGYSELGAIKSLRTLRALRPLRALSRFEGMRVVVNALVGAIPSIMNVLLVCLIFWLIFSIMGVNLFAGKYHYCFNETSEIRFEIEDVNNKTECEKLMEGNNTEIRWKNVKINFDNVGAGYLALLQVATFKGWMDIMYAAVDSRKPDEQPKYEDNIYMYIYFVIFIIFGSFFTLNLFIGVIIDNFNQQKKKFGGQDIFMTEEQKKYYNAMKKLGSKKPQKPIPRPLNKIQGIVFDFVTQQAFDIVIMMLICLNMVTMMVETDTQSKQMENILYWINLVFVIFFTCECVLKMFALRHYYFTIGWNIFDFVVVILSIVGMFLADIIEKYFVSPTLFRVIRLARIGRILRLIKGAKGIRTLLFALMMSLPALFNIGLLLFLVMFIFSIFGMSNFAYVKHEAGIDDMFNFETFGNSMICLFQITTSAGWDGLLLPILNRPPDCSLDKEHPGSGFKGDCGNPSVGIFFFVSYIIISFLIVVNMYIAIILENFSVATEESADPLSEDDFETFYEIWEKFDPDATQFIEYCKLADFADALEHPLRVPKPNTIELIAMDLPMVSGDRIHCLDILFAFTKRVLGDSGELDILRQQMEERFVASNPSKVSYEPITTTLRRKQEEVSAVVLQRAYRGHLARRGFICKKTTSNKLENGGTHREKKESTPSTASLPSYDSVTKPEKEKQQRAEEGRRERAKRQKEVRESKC

[1] = Spontaneous locomotor activity (sLMA) (Example 4); format: in vivo, mouse; conditions: male, CD-1, mouse, in vivo, po, 30 min post-dose, 30-minute test
Method: (§1) Food and water were available ad libitum.
(§2) Dosing solutions were prepared on each experiment day. […] All solutions were protected from light. Samples from dosing solutions were stored at 4° C.
(§3) The sLMA test was carried out over two days. Half of the mice from each treatment group was tested on each day.
(§4) Animals were p.o. administered Compound 1 or 35% HPBCD (vehicle) 30 minutes prior to the sLMA test.
(§5) All mice were anesthetized with CO2. […] The supernatant plasma was pipetted into Eppendorf tubes.
(§6) An aliquot of 20 μL unknown sample, calibration standard, quality control, dilute quality control, single blank and double blank sample was added to a 1.5 mL tube. Each sample (except the double blank) was quenched with 300 μL IS solution (double blank sample was quenched with 300 μL ACN), and then the mixture was vortex-mixed well for at least 15 seconds and centrifuged for 15 minutes at 12000 g, 4° C. 65 μL supernatant was transferred to a 96-well plate and centrifuged for 5 minutes at 3220 g, 4° C. Then 3 μL supernatant was directly injected for LC-MS/MS analysis.
(§7) Brain homogenate was prepared by homogenizing brain tissue with 5 volumes (w:v) of cold 15 mM PBS/MeOH (V:V, 2:1). An aliquot of 40 μL unknown sample, calibration standard, quality control, dilute quality control, single blank and double blank sample was added to a 1.5 mL tube. Each sample (except the double blank) was quenched with 600 μL IS solution (double blank sample was quenched with 600 μL ACN), and then the mixture was vortex-mixed well for at least 15 seconds and centrifuged for 15 minutes at 12000 g, 4° C. 65 μL supernatant was transferred to a 96-well plate and centrifuged for 5 minutes at 3220 g, 4° C. Then 3 μL of the supernatant was directly injected for LC-MS/MS analysis.

[2] = system: spontaneous locomotor activity in male CD-1 mice; test: Spontaneous locomotor activity (sLMA) (Example 4); format: in vivo, mouse
Method: as §1, §2, §3, §4, §5, §6, §7

[3] = Spontaneous locomotor activity (sLMA) (Example 8); format: in vivo, mouse; conditions: male, CD-1, mouse, in vivo, po, 30 min before test, distance travelled
Method: (§8) Male CD-1 mice (Vital River, Beijing, China) approximately 6 weeks old were used for the study. Body weights were between 25 g and 35 g at the time of experiment.
(§9) Treatment was conducted using Compound 1 and 35% 2-hydroxypropyl-β-cyclodextrin (35% HPBCD, used as a negative control). Compound 1 stock solution was prepared fresh each experiment day in 35% HPBCD and protected from light. The stock solution was diluted with vehicle for lower doses.
(§10) The spontaneous locomotor activity (sLMA) test for each study was carried out over three days, with mice from each treatment group tested each day. The treatment groups included mice dosed with vehicle (35% HPBCD) and with Compound 1 at the dose of 3 mg/kg, 5.6 mg/kg, 10 mg/kg and 20 mg/kg. Mice were randomly assigned into one of the treatment groups.
(§11) A single dose of Compound 1 (3 mg/kg, 5.6 mg/kg, 10 mg/kg and 20 mg/kg) or vehicle (35% HPBCD) was administered to mice via oral gavage 30 minutes prior to testing. Immediately prior to conducting the sLMA test, a brief neurological assessment was performed. Each animal was visually assessed for sedation and ataxia.
(§12) Activity was recorded by overhead cameras and was analyzed offline. Video tracking analysis software was used to determine total distance travelled in millimeters. Distance travelled was also calculated in 5-minute bins.
(§13) All statistical analyses were conducted using GraphPad Prism 9.3. Means were combined and standard error was calculated using the Satterthwaite Approximation to combined standard deviations. […] TD50 and TC50 values were calculated from these fit curves.

[4] = system: locomotor activity of male CD-1 mice; test: Spontaneous locomotor activity (sLMA) (Example 8); format: in vivo, mouse
Method: as §8, §9, §10, §11, §12, §13

CCOC(F)(F)c1nnc2ccc(-c3cnc(OCC(F)(F)F)c(F)c3)cn12 [Compound 1]
Persistent INa potency relative to the other tested INa blocking agents (human NaV1.6; fold more potent): at least 550 ×
Persistent INa Hill slope (human NaV1.6; hNaV1.6 in HEK cells, ATX-II): (1.4)
IC50 (human NaV1.6; hNaV1.6 in HEK cells, ATX-II, Vm -120 mV, 200 ms): 128 nM
preference for persistent INa relative to peak INa (human NaV1.6; in words, FIGS. 1A-1D): demonstrated preference for persistent INa relative to peak INa for all assay conditions
TD50 [1]: 10.3 mg/kg
total traveling distance in the 30-minute sLMA test ([2]; 10 and 20 mg/kg p.o.): significantly reduced total traveling distance; also recorded: significantly reduced locomotor activity
sLMA TD50 ([2]; p.o., 30 min post-dose, 30-minute test): 10.27 mg/kg
sLMA plasma TC50 ([2]; plasma concentration): 1123 ng/g
TD50 [3]: 10.4 mg/kg
sedation or ataxia ([4]; 3 mg/kg and 5.6 mg/kg p.o.): No sedation or ataxia was observed
mice with sedation and/or ataxia ([4]; 10 mg/kg p.o.): five
mice with sedation and/or ataxia ([4]; 20 mg/kg p.o.): eight
sLMA brain TC50 ([4]; brain concentration): 1914 ng/g
sLMA plasma TC50 ([4]; plasma concentration): 1.256 µg/mL
